The values below come from patent US8252832B2, “Kinesin inhibitors as cancer therapeutics” (Novartis AG, priority 2007, dated 2012).

The subject of assay [1] is RL. Description: Cell cycle profile by FACS (propidium iodide DNA content). The assay is classed as cell-based, human. The settings on record: 24 and 48 hr. The procedure: Lymphoma cell line cells were treated with the KSP inhibitors of the invention and analyzed by FACs analysis. Approximately 2×10^5 cells were harvested, cell pellets were washed with cold PBS twice and re-suspended in 500 μL cold PBS. Cells were fixed by adding 8 mL cold 80% ethanol while vortexing slowly. After 15 minutes of incubation fixed cells were washed twice with PBS and cell pellets were re-suspended in 1 mL of PI/RNASE staining buffer (BD Pharmingen™ catalog #550825) and incubated for 15 minutes at 37° C. protected from light. Propidium iodide (PI) is a fluorescent vital dye that stains both DNA and RNA. Therefore the RNA must be removed by digestion with ribonuclease (RNase). Stained cells were passed through a cell strainer into a FACS tube to reduce the number of cell aggregates (BD Falcon #352235) prior to FACS analysis. The DNA content of the fixed and stained cells was analyzed by the BD FACSCalibur flow cytometer using the CellQuest software.
Following mitotic arrest, cells have several options including coming out of arrest and dividing normally, undergoing apoptosis directly, or exiting mitosis without cytokinesis (a phenomenon called mitotic slippage). If cells undergo mitotic slippage, they can enter a pseudo-G1 and then either continue to cycle, senesce, or undergo apoptosis. […]
A general note: A flow cytometer gives signals particle by particle.

In assay [2] the test system is KB8.5. Description: CellTiter-Glo proliferation, 72 hours. Conditions: Homo sapiens; Epidermoid, KB8.5, 72 hours. Format: cell-based. Background: ATP-based viability assays read luminescence as a measure of living cells.
The test system of assay [3] is KMS11-Luc. Description: CellTiter-Glo, hematologic malignancy panel. Conditions: MM; for GI50: Homo sapiens. Format: cell-based, human. From the text:
(§1) Identification of tumor types that are the most sensitive to the KSP inhibitors of the present invention can be accomplished using an unbiased approach that uses several cell-based assays. The assays chosen were as follows: • CellTiter-Glo®. This is an assay designed to measure ATP concentration in a cell culture, and can be correlated to cell number. Briefly CellTiter-Glo® (Promega Corporation) is a homogeneous method using the single CellTiter-Glo® reagent to detect ATP wherein ATP in the assay drives the activity of a thermostable luciferase to create a luminescent signal which can then be measured and correlated with the number of viable cells. Briefly, for adherent cells, 1,000 to 5,000 cells/well were plated in 96-well plates (100 μl/well) and let to adhere for 24 hours before being treated with drug. For non-adherent cells, 1,000 to 10,000 cells/well were plated in 96-well plates (100 μl/well) and immediately treated with drug. Drug dilutions were prepared in DMSO at 1000 times the final concentration. These dilutions were then diluted 1/100 in growth media before being added to the cells (11 μl/well) to achieve the desired final concentration. After 48 h in a 37° C. tissue culture incubator, the plates were processed for the CellTiter-Glo®assay according to the manufacturer's instructions. Protocol for a 72 hour cell proliferation assay: The 72 hour assay was performed the same way as the 48 hour assay except for the following modifications: For adherent cells, 500 to 5,000 cells/well were plated in 96-well plates (90 μl/well cell growth media) and left to adhere for 24 hours before being treated with drug. For non-adherent cells, 1,000 to 10,000 cells/well were plated in 96-well plates (90 μl/well cell growth media) and immediately treated with drug. Data values presented represent the concentration of test compound required for a 50% reduction in growth. • LDH release. The Cytotoxicity Detection KitPLUS (LDH) assay (Roche Diagnostics, Manheim, Germany) measures the amount of LDH released in the media by dying cells; LDH catalyzes the conversion of lactate into pyruvate. The enzymatic reaction is coupled to a chemical reaction that uses a tetrazolium salt to form a formazan that is red and can be detected by its absorbance at 490 nm. This assay measures the amount of cell death after drug treatment. Cells were plated at 10,000 cells/well in 96-well plates (100 μl/well). Adherent cells were let to adhere for 24 hours before being treated with drug, whereas non-adherent cells were immediately treated with drug. Drug dilutions were prepared in DMSO at 1000 times the final concentration. These dilutions were then diluted 1/100 in growth media before being added to the cells (11 μl/well) to achieve the desired final concentration. After 48 h in a 37° C. tissue culture incubator, the plates were processed for the Cytotoxicity Detection KitPLUS (LDH) assay according to the manufacturer's instructions. The media only values were subtracted from all the data points before analysis. Data values presented correspond to the compound concentration wherein LDH output is at half maximal level. • Caspase-Glo® 3/7. The Caspase-Glo® 3/7 Assay (Promega Corporation) is a homogeneous luminescent assay that measures caspase-3/7 activities. The assay provides a proluminescent caspase-3/7 DEVD-aminoluciferin substrate and a thermostable luciferase in a reagent optimized for caspase-3/7 activity, luciferase activity and cell lysis. Adding the single Caspase-Glo® 3/7 Reagent results in cell lysis, followed by caspase cleavage of the substrate. This liberates free aminoluciferin, which is consumed by the luciferase, generating a luminescent signal. The signal is proportional to caspase-3/7 activity. Data values presented correspond to the compound concentration wherein caspase 3/7 activity is at half maximal level. […]

The subject of assay [4] is MV4; 11Luc. Description: CellTiter-Glo, hematologic malignancy panel. The assay is classed as cell-based, human. Conditions: AML; for GI50: Homo sapiens.
From the text: as §1

In assay [5] the test system is MV4; 11. Description: CellTiter-Glo, hematologic malignancy panel. The settings on record: AML; for GI50: Homo sapiens. The assay is classed as cell-based, human.
From the text: as §1

For assay [6], the system named is RL. In words: CellTiter-Glo, hematologic malignancy panel. Format: cell-based, human. Conditions: NHL; for GI50: Homo sapiens.
From the text: as §1

The mark [7] stands for this setting: GI50 in nM, read-out: Log(GI50) (converted).

Read-outs that look alike come from different tables or passages of the source.

`CC(C)(C)[C@H](c1nc(-c2cc(F)ccc2F)cn1Cc1ccccc1)N(CC[C@H](N)CF)C(=O)CO` [Compound IIa]: in assay [1], the “cell cycle profile (DNA content, FACS)” value is given as “remained arrested in mitosis”. In addition, the GI50 in assay [2] was 0.5 nM; in assay [3] (setting [7]) it was 0.29 nM; in assay [3] (read-out: GI50) it was 0.29 nM; in assay [4] (setting [7]), 0.105 nM; in assay [4] (read-out: GI50), 0.11 nM; in assay [5] (setting [7]), 0.0769 nM. The GI50 in assay [5] (read-out: GI50) was 0.08 nM; in assay [6] (setting [7]) it was 20 nM; in assay [6] (read-out: GI50), 20 nM. In addition, the “Differential vs mean Log(GI50)” value is reported as 0.068 in assay [3], 0.509 in assay [4], 0.644 in assay [5] and −1.771 in assay [6].

The GI50 is the concentration giving 50% growth inhibition.
